Values quoted from earlier work in patent publication US20040028772A1, “Method for preparation of chewing gum with customer acceptable taste” (priority 2000, published 2004).
Where a name gives a salt, the structure may show the parent alone.

Row | Structure (SMILES) | water solubility (in words) | water-soluble / solubility in water
1 | CC1=C(/C=C/C(C)=C/C=C/C(C)=C/CO)C(C)(C)CCC1 [A-vitamin] | not water-soluble | –
2 | CC(=O)O.CC(=O)O.NC(=N\CCCCCC/N=C(N)/N=C(\N)Nc1ccc(Cl)cc1)/N=C(\N)Nc1ccc(Cl)cc1 [Chlorhexidine diacetate] | – | 1.9 g/100 ml
3 | N=C(NCCCCCCNC(=N)NC(=N)Nc1ccc(Cl)cc1)NC(=N)Nc1ccc(Cl)cc1.O=C(O)[C@H](O)[C@@H](O)[C@H](O)[C@H](O)CO.O=C(O)[C@H](O)[C@@H](O)[C@H](O)[C@H](O)CO [Chlorhexidine digluconat] | mixable | –
4 | [H]/N=C(\N/C(=N/[H])NCCCCCCNC(=N)NC(=N)Nc1ccc(Cl)cc1)Nc1ccc(Cl)cc1 [Chlorhexidine dihydrochloride] | – | 0.06 g/100 ml
5 | Clc1ccc(COC(Cn2ccnc2)c2ccc(Cl)cc2Cl)c(Cl)c1 (stereo not shown) [Miconazol] | – | < 0.001 g/100 ml
6 | C[C@]12CC[C@H]3[C@@H](CCC4=CC(=O)CC[C@@H]43)[C@@H]1CC[C@@H]2O [nandrolone] | heavily soluble | –
7 | CC(=O)Nc1ccc(O)cc1 [paracetamol] | – | 1.4 g/100 ml
